{
  "source": "patent EP4516309A1",
  "about": "“CRHR1 AGONISTS FOR USE IN THE TREATMENT OF SOCIAL ANXIETY DISORDERS” (Consejo Superior de Investigaciones Cientificas, priority 2023, dated 2025)",
  "assay_type_in_all_cases": "in vivo, CRH-Cre mice",
  "key": {"excitatory DREADD": {"target": "T1, excitatory DREADD (Homo sapiens, UniProt P20309, A239G/Y149C)", "T1 construct": "host or cells: ILA CRH+ neurons of CRH-Cre mice, Cre-dependent AAV2/5 transduction in vivo", "T1 sequence (P20309 whole entry Y149C/A239G)": "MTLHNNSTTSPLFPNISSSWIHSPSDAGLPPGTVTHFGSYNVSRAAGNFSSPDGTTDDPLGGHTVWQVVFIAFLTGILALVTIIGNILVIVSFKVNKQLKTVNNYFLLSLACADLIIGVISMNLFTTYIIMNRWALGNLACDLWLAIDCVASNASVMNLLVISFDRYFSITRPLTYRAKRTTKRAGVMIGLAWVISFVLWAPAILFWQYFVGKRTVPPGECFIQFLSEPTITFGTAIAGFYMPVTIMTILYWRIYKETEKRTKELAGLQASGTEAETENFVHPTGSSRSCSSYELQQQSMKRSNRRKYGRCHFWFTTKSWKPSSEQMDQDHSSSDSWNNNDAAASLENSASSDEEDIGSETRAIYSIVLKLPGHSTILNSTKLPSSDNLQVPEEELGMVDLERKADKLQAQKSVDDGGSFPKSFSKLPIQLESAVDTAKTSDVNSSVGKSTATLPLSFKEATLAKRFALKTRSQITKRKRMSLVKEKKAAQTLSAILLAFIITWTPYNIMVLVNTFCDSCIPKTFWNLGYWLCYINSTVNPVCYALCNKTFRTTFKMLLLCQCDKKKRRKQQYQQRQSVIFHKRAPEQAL", "assay": "Repetitive social presentation test with chemogenetic activation of ILA CRH cells", "conditions": "CNO; excitatory DREADD in ILA CRH neurons", "protocol": "(§1) Injection coordinates were the following (in mm from Bregma): AP: 1.65, ML: ±0.1, DV: -2.6. Injections were done bilaterally with 100 nl injected per site. AAV2/DJ hSyn.FLEX.mGFP.2A.Synatophysin-mRuby (Addgene #71760 prepared by the Stanford University vector core #1930), AAV2/8 hSyn.DIO.hM4D(Gi)-mCherry (Addgene #44362-AAV8), AAV2/8 hSyn.DIO.mCherry (Addgene #50459-AAV8), AAV2/5-hSyn-DIO-hM3D(Gq)-mCherry (Addgene, #44361-AAV5), AAV2/5 hsyn.DIO.mCherry (Addgene #50459-AAV5), AAV2/1 syn.FLEX.GCaMP6f.WPRE.SV40 (Addgene #100833-AAV1), AAV2/9 CMV-DIO-(mCherry-U6)-shRNA(anti-Crh) (VTA brain), AAV2/9 CMV-DIO-(mCherry-U6)-shRNA(scrambled) (VTA brain), AAV2/9 hSyn.FLEX.dsRed-shRNA(Vgat) (Addgene #67845), AAV 2/9 hSyn-flex-dsRed-shRNA(scrambled) (Addgene #71383), AAV2/2 CAG.FLEX.ArchT-tdTomato (Addgene #28305 prepared by the University of North Carolina vector core) and AAV2/2 CAG.FLEX.tdTomato (Addgene #28306 prepared by the University of North Carolina vector core) were injected into the ILA of CRH-Cre mice. Viruses expressed for a minimum of 2 weeks.\n(§2) Repetitive social presentation test. […] Films were scored offline for social interaction by a trained observer blind to the experimental condition. Sniffing of any part of the body, allo-grooming and close following counted as social interaction. […]"}, "inhibitory DREADD [1]": {"target": "T2, inhibitory DREADD (Homo sapiens, UniProt P08173, A203G/Y113C)", "T2 construct": "host or cells: ILA CRH+ neurons of CRH-Cre mice, Cre-dependent AAV2/8 transduction in vivo", "T2 sequence (P08173 1-479 Y113C/A203G)": "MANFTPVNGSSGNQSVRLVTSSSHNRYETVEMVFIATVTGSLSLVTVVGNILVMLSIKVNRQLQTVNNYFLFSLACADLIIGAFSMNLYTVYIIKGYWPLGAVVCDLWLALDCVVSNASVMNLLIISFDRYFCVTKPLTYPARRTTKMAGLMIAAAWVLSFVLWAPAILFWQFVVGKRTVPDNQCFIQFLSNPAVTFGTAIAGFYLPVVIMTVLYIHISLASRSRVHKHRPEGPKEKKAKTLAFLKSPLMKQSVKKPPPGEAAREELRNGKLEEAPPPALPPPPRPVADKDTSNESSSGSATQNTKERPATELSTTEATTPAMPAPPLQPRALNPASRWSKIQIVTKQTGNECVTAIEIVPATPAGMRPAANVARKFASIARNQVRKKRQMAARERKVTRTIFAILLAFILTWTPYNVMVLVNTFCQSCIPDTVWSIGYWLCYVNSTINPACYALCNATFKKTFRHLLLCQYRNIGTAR", "assay": "Repetitive social presentation test with chemogenetic silencing of ILA CRH cells", "conditions": "CNO; iDREADD in ILA CRH cells", "protocol": "as §1, §2"}, "inhibitory DREADD [2]": {"target": "T2, inhibitory DREADD", "assay": "Social novelty preference test with chemogenetic silencing of ILA CRH cells", "conditions": "CNO 5 mg/kg intra-peritoneally 30 min prior to the learning trial; iDREADD in ILA CRH cells", "protocol": "Injection coordinates were the following (in mm from Bregma): AP: 1.65, ML: ±0.1, DV: -2.6. Injections were done bilaterally with 100 nl injected per site. […]\nSocial novelty preference test. […] Using automatic tracking of the test mice (ANY-Maze, Stoelting), the inventors quantified the time the test mice spent in the immediate area surrounding each cup - and therefore, interacting with each stimulus mice - during learning and recall. Using the interaction time from the recall trial, the inventors calculated a discrimination index for social novelty preference as the following: D! = (time with novel - time with familiar) / total interaction time. […] The inventors also calculated the total time spent interacting with stimulus mice during each trial in order to verify that the sociability drive was not affected. […]"}},
  "data": [
    {"smiles": "C[N+]1([O-])CCN(C2=Nc3cc(Cl)ccc3Nc3ccccc32)CC1", "note": "[CNO, clozapine N-oxide]", "values": [
      {"measurement": "decrease in social interaction", "setting": "excitatory DREADD", "value": "slightly facilitated"},
      {"measurement": "interaction time during the repeated presentations", "setting": "inhibitory DREADD [1]", "value": "showed no decrease in interaction time"},
      {"measurement": "discrimination index for social novelty preference", "setting": "inhibitory DREADD [2]", "value": "not different from zero"},
      {"measurement": "exploration of novel and familiar mice during recall", "setting": "inhibitory DREADD [2]", "value": "explored the novel and familiar mice to the same extent"}
    ]}
  ]
}
